“Also recorded” adds a separate entry of the source.
Key:
Assay type in all cases: cell-based
[1] = test system: human alveolar adenocarcinoma cell line (H358)
From the text: Pub. […] Cells were pipetted into the mold and allowed 3-5 days to form 3-D clusters, mimicking miniature tumors. The cell clusters were removed from the mold by washing and gentle pipetting. The cell clusters were placed in media containing 0.5% FBS. The clusters were dispensed into 96-well plates at a density of approximately 12-15 clusters per well for testing with the therapeutic composition designated herein as “GZ17” and a known chemotherapeutic agent (doxorubicin, aka adriamycin).
The cell clusters were tested against GZ17 and doxorubicin individually at various dosages, and then against the combination therapeutic containing both agents.
(§1) 96-well cell culture plates were loaded with increasing doses of GZ17 (graph on left) within a row. The doses were each added to 8 rows of each plate for 8 replicates at each dose. Cell clusters were pipetted into each well, and exposed for 24 hours to GZ17. At the completion of 24 hours, the wells were treated with 20 microliters of Prestoblue and allowed to incubate for up to 4 hours. The plates were read at 2-4 different time points after exposure to Prestoblue ranging from 30 minutes to 4 hours. The one-hour time point was the most often used and reported. The plates were loaded into a Perkin Elmer Enspire plate reader and each well was excited at 490 nm and read at 560 nm wavelengths. Relative fluorescence for each well was read.
The chemotherapy classification of paclitaxel (also known as taxol) is a mitotic inhibitor. It works by stabilizing the microtubules. The microtubules are part of the cytoskeleton of the cell. When the cells go into cell division, the microtubules must disassemble so that the cell can divide. However, with paclitaxel, the microtubule polymer can't disassemble, and thus the cells can't divide which triggers apoptosis, or programmed cell death. There are subcategories of drugs in the mitotic inhibitor class including the vinca alkaloids (vincristine and vinblastine) and the colchicines class, podophyllotoxin and griseofulvin. Other drugs that work like paclitaxel are the taxanes and docotaxel.
The study was again repeating using fluorouracil. Fluorouracil is an anti-metabolite chemotherapy. It mimics pyrimidine and incorporates into the DNA and RNA blocking the ability of the cell to divide, and eventually ending in death of the cancer cells. Other drugs in this category include cytarabine and 6-azauracil.
(§2) The powder was reconstituted in deionized water and agitated to ensure substantial homogeneity.

[2] = test system: human ovarian cancer cell line (A1847); experiment: 3-D ovarian cancer cell cluster viability (Prestoblue fluorescence); conditions: for doses giving a statistically significant decrease in live cells: agent alone; for dose that had to be reached before the agent alone had an effect: ovarian cancer spheroids
Protocol: as §1
The human ovarian cancer cell line (A1847) was used to create miniature tumors by loading the individual cells in a micromold according to U.S. Pat. App. Pub. […] Cells were pipetted into the mold and allowed 2-3 days to form 3-D clusters, mimicking miniature tumors. Cell clusters were removed from the mold by washing and gentle pipetting. Cell clusters were placed in media containing 0.5% FBS. The clusters were dispensed into 96-well plates at a density of approximately 10-15 clusters per well. […]
as §2

[3] = test system: human ovarian cancer cell line (A1847); experiment: as above; conditions: paclitaxel alone at 3.16 μM

Compound	effect of the agent alone on lung cancer spheroids ([1]; agent alone)	effect of the agent alone on ovarian cancer clusters [2]	doses giving a statistically significant decrease in live cells [2] [µM]	dose that had to be reached before the agent alone had an effect [2] [µM]	also measured
O=C(O)CCCc1ccc(N(CCCl)CCCl)cc1 [chlorambucil]	no effect	no effect on its own	–	–	–
N.N.[Cl][Pt][Cl] [cisplatin]	–	–	≥ 31.6	≥ 10	–
COc1cccc2c1C(=O)c1c(O)c3c(c(O)c1C2=O)C[C@@](O)(C(=O)CO)C[C@@H]3O[C@H]1C[C@H](N)[C@H](O)[C@H](C)O1 [doxorubicin]	–	–	≥ 0.5	–	relative fluorescence (live cells) with increasing dose ([1]; agent alone, 24 h exposure): fluorescence declined; percent of the cancer cells caused to die ([1]; doxorubicin alone, 1.58 μM, 24 h): 36%; reduction in the number of cells from the baseline ([1]; doxorubicin alone, 0.002 to 0.158 μM): no statistically significant reduction; also recorded: had no effect
O=c1[nH]cc(F)c(=O)[nH]1 [fluorouracil]	–	the dose response was minimal	–	≥ 3.16	doses giving a significant decrease in cell numbers ([1]; agent alone): ≥ 1.58 µM; dose that had to be reached before the agent alone had more than little effect ([1]; agent alone, lung cancer spheroids): ≥ 1.58 µM
CN(Cc1cnc2nc(N)nc(N)c2n1)c1ccc(C(=O)N[C@@H](CCC(=O)O)C(=O)O)cc1 [methotrexate]	no effect alone	–	–	–	–
CC(=O)O[C@H]1C(=O)[C@@]2(C)[C@H]([C@H](OC(=O)c3ccccc3)[C@]3(O)C[C@H](OC(=O)[C@H](O)[C@@H](NC(=O)c4ccccc4)c4ccccc4)C(C)=C1C3(C)C)[C@]1(OC(C)=O)CO[C@@H]1C[C@@H]2O [paclitaxel]	–	–	0.01	≥ 31.6	effect on cancer cell death [3]: no effect on cancer cell death; dose at which the number of live cells is reduced (other doses not significant) ([1]; paclitaxel alone): 5 µM
